Measured values reported in ChEMBL document CHEMBL1158978, “Antimicrobial N-methylpyridinium salts related to the xestamines from the Caribbean sponge Calyx podatypa” (1991).
Structures can show the parent of a compound that is named as a salt.

Columns and labels:
Format in all cases: functional
Conditions in all cases: read-out: IZ
Staphylococcus aureus = assay: Antimicrobial activity against Staphylococcus aureus at 5 ug/ml by standard disk assay
Bacillus subtilis = assay: Antimicrobial activity against Bacillus subtilis at 5 ug/ml by standard disk assay
Candida albicans = assay: Antimicrobial activity against Candida albicans at 10 ug/ml by standard disk assay

Structure (SMILES): CON(C)CCCCCCCCCC/C=C\C#CCCCCc1ccc[n+](C)c1 [XESTAMINE F IODIDE SALT]
- zone of inhibition at 5 µg/mL (Staphylococcus aureus): 9 mm
- zone of inhibition at 5 µg/mL (Bacillus subtilis): 8 mm
- zone of inhibition at 10 µg/mL (Candida albicans): 10 mm
